Data from US10487068B2, “Pyridazine derivatives as RORc modulators” (Genentech, Inc., priority 2015, dated 2019).

Biological target: T1, RORc ligand binding domain (Homo sapiens, UniProt P51449)
T1 sequence (P51449 269-508 limits assumed): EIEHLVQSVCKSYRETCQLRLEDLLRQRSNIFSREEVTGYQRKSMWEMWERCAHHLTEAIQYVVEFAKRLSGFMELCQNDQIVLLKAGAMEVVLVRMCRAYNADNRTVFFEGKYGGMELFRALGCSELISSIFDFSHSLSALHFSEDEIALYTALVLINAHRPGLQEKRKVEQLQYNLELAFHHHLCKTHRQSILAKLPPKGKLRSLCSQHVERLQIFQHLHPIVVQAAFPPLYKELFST
Assay: In Vitro RORc Ligand Binding Assay
Conditions: RORc IC50, radioligand 25-[3H]hydroxycholesterol 6 nM; 0.6 ug/mL RORc receptor; 3 h at 25° C.

| SMILES | IC50 [nM] |
| --- | --- |
| CC1(C)[C@H]2CC[C@]1(c1ccnc(NC(CO)CO)n1)c1nnc(-c3c(F)cccc3F)cc12 [Example 122] | 38.6 |
| CC1(C)[C@H]2CC[C@]1(c1cncc(-c3n[nH]c(=O)[nH]3)n1)c1nnc(-c3c(F)cccc3F)cc12 [Example 123, 3-(6-((5R,8S)-3-(2,6-difluorophenyl)-9,9-dimethyl-5,6,7,8-tetrahydro-5,8-methanocinnolin-8-yl)pyrazin-2-yl)-1H-1,2,4-triazol-5(4H)-one] | 32.5 |
| C[C@H](O)CNC(=O)c1cncc([C@@]23CC[C@@H](c4cc(-c5ccccc5F)nnc42)C3(C)C)n1 [Example 126, 6-((5R,8S)-3-(2-fluorophenyl)-9,9-dimethyl-5,6,7,8-tetrahydro-5,8-methanocinnolin-8-yl)-N-((S)-2-hydroxypropyl)pyrazine-2-carboxamide] | 45.6 |
| CC1(C)[C@H]2CC[C@]1(c1cnnc(N)n1)c1nnc(-c3c(F)cccc3F)cc12 [Example 127, 5-((5R,8S)-3-(2,6-difluorophenyl)-9,9-dimethyl-5,6,7,8-tetrahydro-5,8-methanocinnolin-8-yl)-1,2,4-triazin-3-amine] | 109 |
| CC(C)(O)c1cncc([C@@]23CC[C@@H](c4cc(-c5c(F)cccc5F)nnc42)C3(C)C)n1 [Example 128, 2-(6-((5R,8S)-3-(2,6-difluorophenyl)-9,9-dimethyl-5,6,7,8-tetrahydro-5,8-methanocinnolin-8-yl)pyraizn-2-yl)propan-2-ol] | 21.5 |
| CC1(C)[C@H]2CC[C@]1(c1cncc(CNC(=O)CO)n1)c1nnc(-c3c(F)cccc3F)cc12 [Example 129, N-((6-((5R,8S)-3-(2,6-difluorophenyl)-9,9-dimethyl-5,6,7,8-tetrahydro-5,8-methanocinnolin-8-yl)pyrazin-2-yl)methyl)-2-hydroxyacetamide] | 56.7 |
| CC1(C)[C@H]2CC[C@]1(c1cccc(C(=O)NC(CO)CO)n1)c1nnc(-c3c(F)cccc3F)cc12 [Example 130, 6-((5R,8S)-3-(2,6-difluorophenyl)-9,9-dimethyl-5,6,7,8-tetrahydro-5,8-methanocinnolin-8-yl)-N-(1,3-dihydroxypropan-2-yl)picolinamide] | 55.3 |
| CC1(C)[C@H]2CC[C@]1(c1cccc(C(=O)NCC3(O)COC3)n1)c1nnc(-c3c(F)cccc3F)cc12 [Example 131, 6-((5R,8S)-3-(2,6-difluorophenyl)-9,9-dimethyl-5,6,7,8-tetrahydro-5,8-methanocinnolin-8-yl)-N-((3-hydroxyoxetan-3-yl)methyl)picolinamide] | 44.4 |
| CC(=O)NCc1cncc([C@@]23CC[C@@H](c4cc(-c5c(F)cccc5F)nnc42)C3(C)C)n1 [Example 133, N-((6-((5R,8S)-3-(2,6-difluorophenyl)-9,9-dimethyl-5,6,7,8-tetrahydro-5,8-methanocinnolin-8-yl)pyrazin-2-yl)methyl)acetamide] | 59.2 |
| CC1(C)[C@H]2CC[C@]1(c1cncc(-c3nc(CO)co3)n1)c1nnc(-c3c(F)cccc3F)cc12 [Example 135, (2-(6-((5R,8S)-3-(2,6-difluorophenyl)-9,9-dimethyl-5,6,7,8-tetrahydro-5,8-methanocinnolin-8-yl)pyrazin-2-yl)oxazol-4-yl)methanol] | 23.3 |
| CC1(C)[C@H]2CC[C@]1(c1cccc(S(=O)(=O)N3CCOCC3)n1)c1nnc(-c3c(F)cccc3F)cc12 [Example 137, 4-((6-((5R,8S)-3-(2,6-difluorophenyl)-9,9-dimethyl-5,6,7,8-tetrahydro-5,8-methanocinnolin-8-yl)pyridin-2-yl)sulfonyl)morpholine] | 14.6 |
| CC1(C)[C@H]2CC[C@]1(c1cncc(C(=O)NCc3nnc[nH]3)n1)c1nnc(-c3c(F)cccc3F)cc12 [Example 139, N-((4H-1,2,4-triazol-3-yl)methyl)-6-((5R,8S)-3-(2,6-difluorophenyl)-9,9-dimethyl-5,6,7,8-tetrahydro-5,8-methanocinnolin-8-yl)pyrazine-2-carboxamide] | 65.5 |
| CC1(C)[C@H]2CC[C@]1(c1cncc(C(=O)NC3(CO)CC3)n1)c1nnc(-c3c(F)cccc3F)cc12 [Example 140, 6-((5R,8S)-3-(2,6-difluorophenyl)-9,9-dimethyl-5,6,7,8-tetrahydro-5,8-methanocinnolin-8-yl)-N-(1-(hydroxymethyl)cyclopropyl)pyrazine-2-carboxamide] | 44.4 |
| CC1(C)[C@H]2CC[C@]1(c1cncc(C(=O)NCc3n[nH]c(=O)[nH]3)n1)c1nnc(-c3c(F)cccc3F)cc12 [Example 141, 6-((5R,8S)-3-(2,6-difluorophenyl)-9,9-dimethyl-5,6,7,8-tetrahydro-5,8-methanocinnolin-8-yl)-N-((5-oxo-4,5-dihydro-1H-1,2,4-triazol-3-yl)methyl)pyrazine-2-carboxamide] | 113 |
| CNS(=O)(=O)c1cccc([C@@]23CC[C@@H](c4cc(-c5c(F)cccc5F)nnc42)C3(C)C)n1 [Example 143, 6-((5R,8S)-3-(2,6-difluorophenyl)-9,9-dimethyl-5,6,7,8-tetrahydro-5,8-methanocinnolin-8-yl)-N-methylpyridine-2-sulfonamide] | 5.9 |
| CC1(C)[C@H]2CC[C@]1(c1cncc(-c3ncnn3CCO)n1)c1nnc(-c3c(F)cccc3F)cc12 [Example 145, 2-(5-(6-((5R,8S)-3-(2,6-difluorophenyl)-9,9-dimethyl-5,6,7,8-tetrahydro-5,8-methanocinnolin-8-yl)pyrazin-2-yl)-1H-1,2,4-triazol-1-yl)ethanol] | 43.5 |
| CC1(C)[C@H]2CC[C@]1(c1cccc(-c3nnc(CO)[nH]3)n1)c1nnc(-c3c(F)cccc3F)cc12 [Example 150, (5-(6-((5R,8S)-3-(2,6-difluorophenyl)-9,9-dimethyl-5,6,7,8-tetrahydro-5,8-methanocinnolin-8-yl)pyridin-2-yl)-4H-1,2,4-triazol-3-yl)methanol] | 22.3 |

More lines, now with the values ahead:

| IC50 [nM] | SMILES |
| --- | --- |
| 8.6 | Cc1nc(-c2cncc([C@@]34CC[C@@H](c5cc(-c6c(F)cccc6F)nnc53)C4(C)C)n2)co1 [Example 120, 4-(6-((5R,8S)-3-(2,6-difluorophenyl)-9,9-dimethyl-5,6,7,8-tetrahydro-5,8-methanocinnolin-8-yl)pyrazin-2-yl)-2-methyloxazole] |
| 27.2 | CC1(C)[C@H]2CC[C@]1(c1cncc(-c3nnc(CO)[nH]3)n1)c1nnc(-c3c(F)cccc3F)cc12 [Example 121, (5-(6-((5R,8S)-3-(2,6-difluorophenyl)-9,9-dimethyl-5,6,7,8-tetrahydro-5,8-methanocinnolin-8-yl)pyrazin-2-yl)-4H-1,2,4-triazol-3-yl)methanol] |
| 50.8 | CC1(C)[C@H]2CC[C@]1(c1cncc(C(=O)NCC3(O)CC3)n1)c1nnc(-c3c(F)cccc3F)cc12 [Example 124, 6-((5R,8S)-3-(2,6-difluorophenyl)-9,9-dimethyl-5,6,7,8-tetrahydro-5,8-methanocinnolin-8-yl)-N-((1-hydroxycyclopropyl)methyl)pyrazine-2-carboxamide] |
| 20.9 | CC1(C)[C@H]2CC[C@]1(c1cncc(-c3noc(=O)[nH]3)n1)c1nnc(-c3c(F)cccc3F)cc12 [Example 125, 3-(6-((5R,8S)-3-(2,6-difluorophenyl)-9,9-dimethyl-5,6,7,8-tetrahydro-5,8-methanocinnolin-8-yl)pyrazin-2-yl)-1,2,4-oxadiazol-5(4H)-one] |
| 33.2 | CC1(C)[C@H]2CC[C@]1(c1ccnc(NCC3(O)COC3)n1)c1nnc(-c3c(F)cccc3F)cc12 [Example 132] |
| 18.8 | CC1(C)[C@H]2CC[C@]1(c1cncc(CNS(C)(=O)=O)n1)c1nnc(-c3c(F)cccc3F)cc12 [Example 134, N-((6-((5R,8S)-3-(2,6-difluorophenyl)-9,9-dimethyl-5,6,7,8-tetrahydro-5,8-methanocinnolin-8-yl)pyrazin-2-yl)methyl)methanesulfonamide] |
| 37.1 | CC(C)(O)CNC(=O)c1nccc([C@@]23CC[C@@H](c4cc(-c5c(F)cccc5F)nnc42)C3(C)C)n1 [Example 136] |
| 41.9 | Cc1nnc(-c2nccc([C@@]34CC[C@@H](c5cc(-c6c(F)cccc6F)nnc53)C4(C)C)n2)o1 [Example 138] |
| 17.2 | CC1(C)[C@H]2CC[C@]1(c1cncc(-c3ocnc3CO)n1)c1nnc(-c3c(F)cccc3F)cc12 [Example 142, (5-(6-((5R,8S)-3-(2,6-difluorophenyl)-9,9-dimethyl-5,6,7,8-tetrahydro-5,8-methanocinnolin-8-yl)pyrazin-2-yl)oxazol-4-yl)methanol] |
| 11.6 | CC1(C)[C@H]2CC[C@]1(c1cccc(-c3nnc(CO)o3)n1)c1nnc(-c3c(F)cccc3F)cc12 [Example 144, (5-(6-((5R,8S)-3-(2,6-difluorophenyl)-9,9-dimethyl-5,6,7,8-tetrahydro-5,8-methanocinnolin-8-yl)pyridin-2-yl)-1,3,4-oxadiazol-2-yl)methanol] |
| 31.9 | CC1(C)[C@H]2CC[C@]1(c1cncc(-c3nnn[nH]3)n1)c1nnc(-c3c(F)cccc3F)cc12 [Example 146] |
| 50.6 | CC1(C)[C@H]2CC[C@]1(c1cncc(C(=O)NC3(CO)COC3)n1)c1nnc(-c3c(F)cccc3F)cc12 [Example 147, 6-((5R,8S)-3-(2,6-difluorophenyl)-9,9-dimethyl-5,6,7,8-tetrahydro-5,8-methanocinnolin-8-yl)-N-(3-(hydroxymethyl)oxetan-3-yl)pyrazine-2-carboxamide] |
| 21 | CC1(C)[C@H]2CC[C@]1(c1cncc(-c3n[nH]c(=O)o3)n1)c1nnc(-c3c(F)cccc3F)cc12 [Example 148, 5-(6-((5R,8S)-3-(2,6-difluorophenyl)-9,9-dimethyl-5,6,7,8-tetrahydro-5,8-methanocinnolin-8-yl)pyrazin-2-yl)-1,3,4-oxadiazol-2(3H)-one] |
| 24 | Cc1nnc(-c2cccc([C@@]34CC[C@@H](c5cc(-c6c(F)cccc6F)nnc53)C4(C)C)n2)[nH]1 [Example 149] |
